Source: ChEMBL document CHEMBL3044916, “Attract-and-kill: a new strategy for the management of the potato tuber moths Phthorimaea operculella (Zeller) and Symmetrischema tangolias (Gyen) in potato: laboratory experiments towards optimising pheromone and insecticide concentration” (2010)
The source made the active and inactive calls. No cut-off for these calls is given here.

Experiments:
Symmetrischema tangolias [1] = test: Insecticidal activity against Symmetrischema tangolias assessed as mortality at 5 g/l after 36 days by cage bio assay relative to control; format: functional; details: 864 h
Symmetrischema tangolias [2] = test: Insecticidal activity against Symmetrischema tangolias assessed as mortality at 5 g/l after 24 hr by attract-and-kill assay; format: functional, organism-based
Phthorimaea operculella [3] = test: Insecticidal activity against Phthorimaea operculella assessed as mortality at 2.5 g/l after 48 hr; format: functional
Symmetrischema tangolias [4] = test: Insecticidal activity against Symmetrischema tangolias assessed as mortality at 1.25 g/l after 24 hr; format: functional
Phthorimaea operculella [5] = test: Insecticidal activity against Phthorimaea operculella assessed as mortality at 0.65 g/l after 48 hr; format: functional
Phthorimaea operculella [6] = test: Insecticidal activity against Phthorimaea operculella assessed as mortality at 2.5 g/l after 24 hr; format: functional
Phthorimaea operculella [7] = test: Insecticidal activity against Phthorimaea operculella assessed as mortality at 5 g/l after 24 hr by attract-and-kill assay; format: functional, organism-based
Symmetrischema tangolias [8] = test: Insecticidal activity against Symmetrischema tangolias assessed as mortality at 5 g/l after 48 hr; format: functional
Symmetrischema tangolias [9] = test: Insecticidal activity against Symmetrischema tangolias assessed as mortality at 5 g/l after 3 days by cage bio assay relative to control; format: functional; details: 72 h
Phthorimaea operculella [10] = test: Insecticidal activity against Phthorimaea operculella assessed as mortality at 0.35 g/l after 48 hr; format: functional
Symmetrischema tangolias [11] = test: Insecticidal activity against Symmetrischema tangolias assessed as mortality at 1.25 g/l after 48 hr; format: functional
Symmetrischema tangolias [12] = test: Insecticidal activity against Symmetrischema tangolias assessed as mortality at 5 g/l after 8 days by cage bio assay relative to control; format: functional; details: 192 h
Symmetrischema tangolias [13] = test: Insecticidal activity against Symmetrischema tangolias assessed as mortality at 5 g/l after 24 hr by attract-and-kill assay relative to control; format: functional
Symmetrischema tangolias [14] = test: Insecticidal activity against Symmetrischema tangolias assessed as mortality at 0.35 g/l after 48 hr; format: functional
Phthorimaea operculella [15] = test: Insecticidal activity against Phthorimaea operculella assessed as mortality at 5 g/l after 48 hr; format: functional
Symmetrischema tangolias [16] = test: Insecticidal activity against Symmetrischema tangolias assessed as mortality at 5 g/l after 24 hr; format: functional
Phthorimaea operculella [17] = test: Insecticidal activity against Phthorimaea operculella assessed as mortality at 0.35 g/l after 24 hr; format: functional
Phthorimaea operculella [18] = test: Insecticidal activity against Phthorimaea operculella assessed as mortality at 5 g/l after 24 hr; format: functional
Phthorimaea operculella [19] = test: Insecticidal activity against Phthorimaea operculella assessed as mortality at 5 g/l after 6 days by cage bio assay relative to control; format: functional; details: 144 h
Phthorimaea operculella [20] = test: Insecticidal activity against Phthorimaea operculella assessed as mortality at 1.25 g/l after 48 hr; format: functional
Symmetrischema tangolias [21] = test: Insecticidal activity against Symmetrischema tangolias assessed as mortality at 2.5 g/l after 48 hr; format: functional
Symmetrischema tangolias [22] = test: Insecticidal activity against Symmetrischema tangolias assessed as mortality at 5 g/l after 4 days by attract-and-kill assay relative to control; format: functional; details: 96 h
Phthorimaea operculella [23] = test: Insecticidal activity against Phthorimaea operculella assessed as mortality at 5 g/l after 36 days by cage bio assay relative to control; format: functional; details: 864 h
Phthorimaea operculella [24] = test: Insecticidal activity against Phthorimaea operculella assessed as mortality at 5 g/l after 4 days by attract-and-kill assay relative to control; format: functional; details: 96 h
Symmetrischema tangolias [25] = test: Insecticidal activity against Symmetrischema tangolias assessed as mortality at 0.65 g/l after 24 hr; format: functional
Phthorimaea operculella [26] = test: Insecticidal activity against Phthorimaea operculella assessed as mortality at 5 g/l after 3 days by cage bio assay relative to control; format: functional; details: 72 h
Phthorimaea operculella [27] = test: Insecticidal activity against Phthorimaea operculella assessed as mortality at 5 g/l after 24 hr by attract-and-kill assay relative to control; format: functional
Symmetrischema tangolias [28] = test: Insecticidal activity against Symmetrischema tangolias assessed as mortality at 0.35 g/l after 24 hr; format: functional
Phthorimaea operculella [29] = test: Insecticidal activity against Phthorimaea operculella assessed as mortality at 1.25 g/l after 24 hr; format: functional
Phthorimaea operculella [30] = test: Insecticidal activity against Phthorimaea operculella assessed as mortality at 0.65 g/l after 24 hr; format: functional
Symmetrischema tangolias [31] = test: Insecticidal activity against Symmetrischema tangolias assessed as mortality at 2.5 g/l after 24 hr; format: functional
Symmetrischema tangolias [32] = test: Insecticidal activity against Symmetrischema tangolias assessed as mortality at 0.65 g/l after 48 hr; format: functional

CC1(C)C(C=C(Cl)Cl)C1C(=O)OC(C#N)c1ccc(F)c(Oc2ccccc2)c1 (configuration not stated) [CYFLUTHRIN]
mortality at 5000 µg/mL (Symmetrischema tangolias [1]): 53%
Activity (Symmetrischema tangolias [2]): Active
mortality at 2500 µg/mL (Phthorimaea operculella [3]): 63.2%
mortality at 1250 µg/mL (Symmetrischema tangolias [4]): 15.6%
mortality at 650 µg/mL (Phthorimaea operculella [5]): 47.4%
mortality at 2500 µg/mL (Phthorimaea operculella [6]): 47.4%
Activity (Phthorimaea operculella [7]): Active
mortality at 5000 µg/mL (Symmetrischema tangolias [8]): 77.7%
mortality at 5000 µg/mL (Symmetrischema tangolias [9]): 100%
mortality at 350 µg/mL (Phthorimaea operculella [10]): 31.6%
mortality at 1250 µg/mL (Symmetrischema tangolias [11]): 42.2%
mortality at 5000 µg/mL (Symmetrischema tangolias [12]): 100%
mortality at 5000 µg/mL (Symmetrischema tangolias [13]): 40%
mortality at 350 µg/mL (Symmetrischema tangolias [14]): 22.2%
mortality at 5000 µg/mL (Phthorimaea operculella [15]): 84.2%
mortality at 5000 µg/mL (Symmetrischema tangolias [16]): 59.4%
mortality at 350 µg/mL (Phthorimaea operculella [17]): 21.1%
mortality at 5000 µg/mL (Phthorimaea operculella [18]): 57.9%
mortality at 5000 µg/mL (Phthorimaea operculella [19]): 100%
mortality at 1250 µg/mL (Phthorimaea operculella [20]): 63.2%
mortality at 2500 µg/mL (Symmetrischema tangolias [21]): 68.3%
mortality at 5000 µg/mL (Symmetrischema tangolias [22]): 100%
mortality at 5000 µg/mL (Phthorimaea operculella [23]): 44%
mortality at 5000 µg/mL (Phthorimaea operculella [24]): 100%
mortality at 650 µg/mL (Symmetrischema tangolias [25]): 26.6%
mortality at 5000 µg/mL (Phthorimaea operculella [26]): 100%
mortality at 5000 µg/mL (Phthorimaea operculella [27]): 40%
mortality at 350 µg/mL (Symmetrischema tangolias [28]): 10.5%
mortality at 1250 µg/mL (Phthorimaea operculella [29]): 38.8%
mortality at 650 µg/mL (Phthorimaea operculella [30]): 26.3%
mortality at 2500 µg/mL (Symmetrischema tangolias [31]): 52.7%
mortality at 650 µg/mL (Symmetrischema tangolias [32]): 31.6%
